How the values were obtained:
HIV-1IIIB = experiment: HIV-1 antiviral assay, CPE reduction (MTS); settings: peptide 10 micrograms per ml; 6 days post-infection
CEM-SS cells = experiment: HIV-1 assay cytotoxicity, MTS cell viability; settings: peptide 10 micrograms per ml
[1] = test system: Ovalbumin-restimulated spleen cells; experiment: Th1/Th2 cytokine profiling assay; type: cell-based, Balb/c mice; settings: 10 micrograms per ml; 72 hours
Description: The Balb/c mice (originated in 1923, it is a popular strain and is used in many different research disciplines. Also classified as an inbred from the production of 20 or more successive brother-sister matings, the Balb/c mouse is albino and small in size) were immunized on Days 1, 15, and 29 with Ovalbumin (Ovalbumin is the main protein found in egg white, commonly used to stimulate an immunological reaction in test animals) in PBS (5 micrograms/injection). On day 50, spleens of the mice were harvested (3 weeks after last boost with Ovalbumin). Cells were cultured (2×10^5/well in triplicate) and incubated with culture medium or test peptide—10 micrograms per ml—for 30 min. Thereafter, additional Ovalbumin was added to the cells at 10 micrograms/ml for in vitro restimulation of the cells. 72 hours later, cell supernatants were harvested and assayed using the Becton Dickinson Mouse Th1/Th2 Cytokine CBA Kit. This kit can be used to measure Interleukin-2 (IL-2), Interleukin-4 (IL-4), Interleukin-5 (IL-5), Interferon-γ (IFN-γ), and Tumor Necrosis Factor-α (TNF-α) protein levels in a single sample. The kit performance has been optimized for analysis of physiologically relevant concentrations (pg/ml levels) of specific cytokine proteins in tissue culture supernatants and serum samples.

HCMV strain AD169 = experiment: HCMV plaque reduction assay; type: cell-based; settings: HCMV in MRC-5 cells; peptide 10 micrograms per ml; 7-10 days
Description: (§1) Cells were split twic a week 1:2.
Ganciclovir was used as positive control.

Streptococcus pneumoniae = Streptococcus pneumoniae assay; type: cell-based; settings: Streptococcus pneumoniae growth; peptide 10 micrograms per ml
Experimental: (§2) The antibacterial assay was conducted using clear, U-bottom 96-well microtiter plates. Cation-adjusted Mueller-Hinton Broth (MHB) was used for testing Streptococcus pneumoniae. The peptide of the invention (0.1 ml of each—10 micrograms per ml—) was dispensed into wells in duplicate. Then the wells were inoculated with 5×10^5 CFU/mL Streptococcus pneumoniae in 0.1 ml volume. For control purposes, each plate included 4 wells containing media without bacterial inoculum and 4 wells containing medium with inoculum but without peptide. The plates were incubated for 12 h at 37° C., and read visually 18-24 hours post-incubation. Growth control of Streptococcus pneumoniae was examined first to determine adequacy of media preparations and growth conditions. Acceptable growth is defined as ≧2 mm wide button of cells at the bottom of each sample well, or obvious turbidity in the culture supernatant. Test wells were examined and scored as positive/negative for activity. A positive score for activity is based on complete inhibition of macroscopic growth of the test Streptococcus pneumoniae.

HUVEC [2] = experiment: Endothelial tube formation assay; type: cell-based, human; settings: 10 micrograms per ml, 20 hours
Experimental: The endothelial tube formation assay is based on the ability of endothelial cells to form three-dimensional capillary-like tubular structures when cultured on a gel of basement membrane extract. The endothelial tube formation assay represents a powerful model for studying inhibition and induction of angiogenesis. Pre-labeled HUVEC with Calcein AM were seeded in a 96-well culture plate coated with extracellular metrix (Chemicon international Cat. ECM625) and treated with test peptide—10 micrograms per ml—in full growth medium. Positive control was vehicle only. The endothelial cells were allowed to form tubes foe 20 hours and were then examined under an inverted fluorescent microscope. Duplicate wells for each treatment were photographed and quantitatevily analyzed for an average tubule length using image analysis software ImageProPlus. Raw data were expressed as average tubule lenghs in pixels±standard deviation. Statistic p values were computed using the Student's t-test.

MRSA = experiment: Methicillin resistant Staphylococcus aureus (MRSA) assay; type: cell-based; settings: MRSA growth; peptide 10 micrograms per ml
Experimental: as §2, with “MRSA.” for “Streptococcus pneumoniae.”, “MRSA” for “Streptococcus pneumoniae”, “2” for “≧2”

HUVEC [3] = experiment: Endothelial cell migration assay; type: cell-based, human; settings: 10 micrograms per ml, 22 hours
Experimental: Endothelial cell migration is a prerequisite for the process of neo-vascularization or angiogenesis which is crucial for on-site recruitment of blood vessel formation. Primary Human endothelial cells (HUVEC) were seeded in insert chambers with 3 micrometer pore size of multi-transwell plate for 6 hours at 37° C. in Endothelial Cell Basal Medium (EBM) supplemented with 0.1% bovine serum albumin. Thereafter, designated concentration of test peptide—10 micrograms per ml—was added in duplicate wells. The endothelia were allowed to migrate for 22 hours at 37° C., then, migrated cells were fixed and stained with Hoechst 33342 dye. Images of 3 fields per insert were taken and the number of migrated cells per field were quantified using the ImageProPlus software. Data were analyzed for the average number of the migrated cells and standard deviation of six data points for each treatment condition. Active test peptide against HUVEC migration was determined based on 50% inhibition of migrated cells as compared with the control. Statistic p values were computed using the Student's t-test.

MRC-5 cells = experiment: HCMV assay cytotoxicity testing, CellTiter 96; type: cell-based, human; settings: 6 days incubation
Experimental: as §1
For cytotxicity testing, MRC-5 cells were seeded at 2,500 cells/well in 96 well plates using growth medium. […] The following day, peptide was added and tested in duplicates. After a 6 days incubation period, cell viability was measured using CellTiter 96 Solution (Promega). Plates were incubated for additional 4 hours at 37° C.

A549 cells [4] = experiment: Propidium iodide cell cycle assay; type: cell-based, human; settings: 10 micrograms per ml, 24 hours
Experimental: Human A549 cells (carcinomic human alveolar basal epithelial cells) were utilized in the experiments employing the Propidium iodide cell cycle assay. The eukaryotic cell cycle is a series of events that take place in a cell leading to its replication.
Propidium iodide is an intercalating agent and a fluorescent molecule that can be used to stain DNA. Cells were incubated for 24 hours with test peptide—10 micrograms per ml—or left untreated. After that cells were trypsinized, suspended in medium+10% FCS, centrifuged (1000 rpm, 5 min), and the cell pellet resuspended in PBS (1 ml). The cells were pipetted into 2.5 ml absolute EtOH (final concentration approx. 70%) and incubated on ice for 15 min. Thereafter, cells were pelleted at 1500 rpm for 5 min and resuspended in Propidium iodide solution in PBS. After incubation for 40 min at 37° C., cells were analyzed in the FACS.

Pseudomonas aeruginosa = Pseudomonas aeruginosa assay; type: cell-based; settings: Pseudomonas aeruginosa growth; peptide 10 micrograms per ml
Experimental: as §2, with “Pseudomonas aeruginosa.” for “Streptococcus pneumoniae.”, “Pseudomonas aeruginosa” for “Streptococcus pneumoniae”

A549 cells [5] = experiment: Apoptosis prevention assay (Annexin-5, C2 ceramide); type: cell-based, human; settings: A549 cells pretreated 30 min; 10 micrograms per ml
Description: Human A549 cells (carcinomic human alveolar basal epithelial cells) were utilized in the experiments employing the Annexin-5 apoptosis assay. Annexin-5 is a member of a highly conserved protein family that binds acidic phospholipids in a calcium-dependent manner. […] Phosphatidylserine is translocated from the inner side of the plasma membrane to the outer layer when cells undergo death by apoptosis or cell necrosis and serves as a signal by which cell destined for death are recognized by phagocytes. A549 cells were pretreated for 30 min with test peptide—10 micrograms per ml—followed by the exposure to C2 ceramide. Ceramide mediates cell apoptosis through the activation of the mitogen activating protein kinase (MAPK) and the stress activated kinase (JNK/SAPK). C2 ceramide is a synthetic, membrane soluble analog of ceramide.

HepG2-2.2.15 cells = experiment: HBV assay cytotoxicity, dye uptake cell viability; type: cell-based; settings: peptide 10 micrograms per ml
A549 cells [6] = experiment: Apoptosis induction assay (Annexin-5); type: cell-based, human; settings: 10 micrograms per ml, 24 hours
Description: Human A549 cells (carcinomic human alveolar basal epithelial cells) were utilized in the experiments employing the Annexin-5 apoptosis assay. Annexin-5 is a member of a highly conserved protein family that binds acidic phospholipids in a calcium-dependent manner. […] Phosphatidylserine is translocated from the inner side of the plasma membrane to the outer layer when cells undergo death by apoptosis or cell necrosis and serves as a signal by which cell destined for death are recognized by phagocytes. Test peptide—10 micrograms per ml—were exposed for 24 hours to the A549 cells before they were analyzed for signs of apoptosis.

[7] = test system: PHA-stimulated PBMC (T cell proliferation); experiment: T cell proliferation assay; type: cell-based, human; settings: 3H-thymidine incorporation; 10 micrograms per ml
Experimental: Human Peripheral Blood Mononuclear Cells (PBMC) were obtained from normal human donors. The T cell proliferation was induced by stimulation of the cells with the T cell mitogen phytohemagglutinin (PHA), either in the absence (positive proliferation control), or in the presence of test peptide—10 micrograms per ml—to examine their effects on the T cell proliferating response. 10^5/well PBMC were plated in 96-well microtiter plates and assayed in duplicate with the peptide. Cell cultures were incubated at 37° C. for 3 days in a 5% CO2 incubator and were thereafter pulsed with 1 microCi/well ^3H-thymidine for additional 12 hours of culture. At the end of incubation time, the plates were harvested and the cells counted by liquid scintillation for the incorporation of ^3H-thymidine as a measure of T cell proliferation.

Row | Compound | % CPE reduction in HIV-1 infected CEM-SS cells (HIV-1IIIB) [%] | % Cell viability (CEM-SS cells) [%] | IFNγ spleen cells; TH1 response (% of control) [1] | % plaque reduction (HCMV strain AD169) [%] | % inhibition (Streptococcus pneumoniae) [%] | % inhibition of tube formation (HUVEC [2]) [%] | % inhibition (MRSA) [%] | % inhibition of migration (HUVEC [3]) [%] | % Cell viability (MRC-5 cells) [%] | Cell cycle analysis G2/M (A549 cells [4]) | % inhibition (Pseudomonas aeruginosa) [%] | % prevention of ceramide induced apoptosis (A549 cells [5]) [%] | % Cell viability (HepG2-2.2.15 cells) [%] | % of induction (A549 cells [6]) [%] | % of PHA induced control [7] [%]
1 | CC(C)(C)NC(=O)[C@@H]1CN(Cc2cccnc2)CCN1C[C@@H](O)C[C@@H](Cc1ccccc1)C(=O)N[C@H]1c2ccccc2C[C@H]1O [Indinavir] | 100 |  |  |  |  |  |  |  |  |  |  |  |  |  | 
2 | Cc1cn([C@H]2C[C@H](N=[N+]=[N-])[C@@H](CO)O2)c(=O)[nH]c1=O [AZT, reference compound] | 99 | 97 |  |  |  |  |  |  |  |  |  |  |  |  | 
3 | C[C@@H](O)[C@@H]1NC(=O)[C@H](CCCCN)NC(=O)[C@@H](Cc2c[nH]c3ccccc23)NC(=O)[C@H](Cc2ccccc2)NC(=O)[C@@H](NC(=O)[C@H](N)Cc2ccccc2)CSSC[C@@H](C(=O)N[C@H](CO)[C@@H](C)O)NC1=O [Octreotide, D-Phe-Cys-Phe-D-Trp-Lys-Thr-Cys-L-threoninol] | 0.0 | 100 | 56.0 % of control | 0.0 | 100.0 | 8 | 0.0 | −24 | 100 | 9.2 | 0.0 | 0.0 | 97.8 | 2.6 | 100.0

— patent publication US8541364B2, “Use of a octreotide as a therapeutic agent” (Mondobiotech Laboratories AG, priority 2007, dated 2013)
